Test system in the first test: not listed separately
Put plainly: Threshold cooling effect of p-menthane carboxylic acid esters. The conditions noted are these: p-menthane-COOR esters. Type of test: in vivo, human. The text has this: Neurophysiological and Molecular Mechanisms of Drug Action. The procedures described previously are used in drug screening. Experimentally there are additional methods to identify peripheral antinociceptive pharmacophore-compounds on sensory nerve endings. TRP receptors are present in sensory neurons. At the molecular level, the interactions of these peripheral antinociceptive pharmacophore-compounds with various TRP receptors can be characterized. The methods for such receptor studies were described by Laus et al. (Prostate tumor nucleotide compositions and methods of detection thereof. U.S. Pat. No. 6,194,152 B1, Feb. 27, 2001), and by Bevan et al. (Vanilloid receptor-related nucleic acids and polypeptides. U.S. 2003/0157633 A1, Aug. 21, 2003) and Julius et al. (Methods of modulating cold sensory perception. U.S. 2003/0219834 A1, Nov. 27, 2003), herein incorporated by reference. In the patent by Laus et al. it is noted that activation of trp-p8 by specific agonists of this receptor may also be utilized for the treatment of prostate disorders such prostate neoplasia. The use of peripheral antinociceptive pharmacophore-compounds of this discovery for prostate disorders is also contemplated in the present patent application. Identification of Pharmacophore. […] Based on this information, the pharmacophore precursor was selected and then the -ZR″ moiety was placed on the molecule to form the peripheral antinociceptive pharmacophore compounds of this discovery with desired pharmacokinetics and adequate delivery of pharmacophore to the target.
Regarding `CC1(C)OCC(CO)O1` (stereo not drawn), the “Threshold Cooling Effect” value was 11 µg.
The same measure, in the same setting: as for `CC(=O)OCCOC(=O)C1CC(C)CCC1C(C)C` (stereo not drawn) [2-acetoxoyethanol], the figure is 33 µg; as for `CC(C)(O)C(=O)O` [2-hydroxy-2-methylpropanoic acid], 20 µg.
Still for that read-out and setting: the figure for `Cc1cc(O)cc(O)c1` [3,5-dihydroxytoluene] is 15 µg.
On to `OCCCCO` [butan-1,4-diol], for which the “Threshold Cooling Effect” value worked out at 12 µg.
Same read-out and setting: the figure for `CC(O)C(C)O` (stereo not drawn) [butan-2,3-diol] is 3 µg.
Consider `OCC#CCO` [butyn-1,4-diol], for which the “Threshold Cooling Effect” value was 6 µg.
Take `OC1CCCCC1O` (stereo not drawn) [cyclohexan-1,2-diol]: the “Threshold Cooling Effect” value was 4 µg.
Take `OCCOCCO` [diethylene glycol]: the “Threshold Cooling Effect” value was 1 µg.
Still for that read-out and setting: as for `CCOC(=O)C(C)O` (stereo not drawn) [ethyl lactate], the figure is 50 µg.
Same read-out and setting: the figure for `OCCO` [ethylene glycol] is 1.5 µg; for `OCC(O)CO` [glycerol] it is 1.2 µg.
With `CC1CCC(C(C)C)C(C(=O)OCC(=O)O)C1` (stereo not drawn) [glycollic acid], the “Threshold Cooling Effect” value was found to be 15 µg.
The same measure, in the same setting: as for `CC(O)C(=O)O` (stereo not drawn) [lactic acid], the figure is 8 µg; as for `OCCCO` [propan-1,3-diol], 7 µg; as for `CC(O)CO` (stereo not drawn) [propylene glycol], 1.4 µg.
The same measure, in the same setting: the figure for `OC[C@@H](O)[C@@H](O)[C@H](O)[C@@H](O)CO` [sorbitol] is 50 µg; for `OCCOCCOCCO` [triethylene glycol] it is 5 µg.
Regarding hexylene glycol, the “Threshold Cooling Effect” value was determined as 8 µg.

The test system of a further test is tongue of the test subject. The test can be described thus: Cold sensation threshold on tongue, impregnated filter paper. It is filed as in vivo, human. The conditions noted are these: filter paper 1 × 1 cm on tongue, 30 sec, presence or absence of cooling effect.
As for `CC1CCC(C(C)C)C(C(=O)Nc2cccc3ccccc23)C1` (stereo not drawn) [N-(1′-naphthyl)-2-isopropyl-5-methylcyclohexanecarboxamide], the “Cold Sensation Threshold on Tongue” value was 6 µg.
Same read-out and setting: the figure for `COc1ccc(NC(=O)C2C3C=CC(C3)C2CC(C)C)c(OC)c1` (stereo not drawn) [N-(2′,4′-dimethoxyphenyl)-3-isobutylbicyclo[2.2.1]hept-5-ene-2-carboxamide] is 1 µg; for `Cc1ccc(NC(=O)C2(C(C)C)CCCCCC2)c(C)c1` [N-(2′,4′-dimethylphenyl)-1-isopropylcycloheptanecarboxamide] it is 15 µg; for `Cc1ccc(NC(=O)C(C)(C(C)C)C(C)C)c(C)c1` [N-(2′,4′-dimethylphenyl)-2-isopropyl-2,3-dimethylbutyramide] it is 1 µg.
With `Cc1ccc(NC(=O)C2CC(C)CCC2C(C)C)c(C)c1` (stereo not drawn) [N-(2′,4′-dimethylphenyl)-2-isopropyl-5-methylcyclohexanecarboxamide], the “Cold Sensation Threshold on Tongue” value was 0.1 µg.
For the molecule `Cc1ccc(C)c(NC(=O)C(C)(CC(C)C)C(C)C)c1` (stereo not drawn) [N-(2′,5′-dimethylphenyl)-2-isopropyl-2,4-dimethylpentanamide], the “Cold Sensation Threshold on Tongue” value is 5 µg.
Still for that read-out and setting: the figure for `Cc1ccc(C)c(NC(=O)C2C3CCC(C3)C2(C)C)c1` (stereo not drawn) [N-(2′,5′-dimethylphenyl)-3,3-dimethylbicyclo[2.2.1]heptane-2-carboxamide] is 20 µg; for `CC1CCC(C(C)C)C(C(=O)Nc2ccccc2O)C1` (stereo not drawn) [N-(2′-hydroxyphenyl)-2-isopropyl-5-methylcyclohexanecarboxamide] it is 0.5 µg.
Same read-out and setting: as for `COc1ccc(NC(=O)C2C3C=CC(C3)C2CC(C)C)c(C)c1` (stereo not drawn) [N-(2′-methyl-4′-methoxyphenyl)-3-isobutylbicyclo[2.2.1]hept-5-ene-2-carboxamide], the figure is 1 µg.
Still for that read-out and setting: as for `CCCCC1C2C=CC(C2)C1C(=O)Nc1ccc(OC)cc1C` (stereo not drawn) [N-(2′-methyl-4′-methoxyphenyl)-3-n-butylbicyclo[2.2.1]hept-5-ene-2-carboxamide], the figure is 1 µg; as for `COc1ccc(NC(=O)C2(C(C)C)CCCCCC2)cc1OC` [N-(3′,4′-dimethoxyphenyl)-1-isopropylcycloheptanecarboxamide], 5 µg.
For the molecule `Cc1ccc(NC(=O)C2(C(C)C)CCCCCC2)cc1C` [N-(3′,4′-dimethylphenyl)-1-isopropylcycloheptanecarboxamide], the “Cold Sensation Threshold on Tongue” value worked out at 15 µg.
`Cc1ccc(NC(=O)C(C)(C(C)C)C(C)C)cc1C` [N-(3′,4′-dimethylphenyl)-2-isopropyl-2,3-dimethylbutyramide]: the “Cold Sensation Threshold on Tongue” value is 3 µg.
Still for that read-out and setting: as for `COc1ccc(NC(=O)C2C3C=CC(C3)C2CC(C)C)cc1O` (stereo not drawn) [N-(3′-hydroxy-4′-methoxyphenyl)-3-isobutylbicyclo[2.2.1]hept-5-ene-2-carboxamide], the figure is 8 µg.
On to `CCCCC1C2C=CC(C2)C1C(=O)Nc1ccc(OC)c(O)c1` (stereo not drawn) [N-(3′-hydroxy-4′-methoxyphenyl)-3-n-butylbicyclo[2.2.1]hept-5-ene-2-carboxamide], for which the “Cold Sensation Threshold on Tongue” value came to 5 µg.
On the same count and under the same terms, the figure for `Cc1ccc(NC(=O)C2(C(C)C)CCCCCC2)cc1O` [N-(3′-hydroxy-4′-methylphenyl)-1-isopropylcycloheptanecarboxamide] is 1 µg; for `Cc1ccc(NC(=O)C2CC(C)CCC2C(C)C)cc1O` (stereo not drawn) [N-(3′-hydroxy-4′-methylphenyl)-2-isopropyl-5-methylcyclohexanecarboxamide] it is 0.1 µg.
On to `CC(C)C1(C(=O)Nc2cccc(O)c2)CCCCCC1` [N-(3′-hydroxyphenyl)-1-isopropylcycloheptanecarboxamide], for which the “Cold Sensation Threshold on Tongue” value came out at 10 µg.
With `CC(=O)c1ccc(NC(=O)C2CC(C)CCC2C(C)C)cc1` (stereo not drawn) [N-(4′-acetylphenyl)-2-isopropyl-5-methylcyclohexanecarboxamide], the “Cold Sensation Threshold on Tongue” value was found to be 2 µg.
Take `CC1CCC(C(C)C)C(C(=O)Nc2ccc(Cl)cc2)C1` (stereo not drawn) [N-(4′-chlorophenyl)-2-isopropyl-5-methylcyclohexanecarboxamide]: the “Cold Sensation Threshold on Tongue” value stood at 8 µg.
The same measure, in the same setting: as for `CCOC(=O)c1ccc(NC(=O)C2CC(C)CCC2C(C)C)cc1` (stereo not drawn) [N-(4′-ethoxycarbonylphenyl)-2-isopropyl-5-methylcyclohexanecarboxamide], the figure is 5 µg.
On to `CC1CCC(C(C)C)C(C(=O)Nc2ccc(F)cc2)C1` (stereo not drawn) [N-(4′-fluorophenyl)-2-isopropyl-5-methylcyclohexanecarboxamide], for which the “Cold Sensation Threshold on Tongue” value came out at 0.5 µg.
In the case of `CC1CCC(C(C)C)C(C(=O)Nc2ccc(O)cc2)C1` (stereo not drawn) [N-(4′-hydroxyphenyl)-2-isopropyl-5-methylcyclohexanecarboxamide], the “Cold Sensation Threshold on Tongue” value came to 1 µg.
On to `COc1ccc(NC(=O)C2(C(C)C)CCCCCC2)c(C)c1` [N-(4′-methoxy-2′-methylphenyl)-1-isopropylcycloheptanecarboxamide], for which the “Cold Sensation Threshold on Tongue” value amounted to 0.2 µg.
Still for that read-out and setting: the figure for `COc1ccc(NC(=O)C2CC3CCC2(C)C3(C)C)cc1` (stereo not drawn) [N-(4′-methoxyphenyl)-1,7,7-trimethylbicyclo[2.2.1]heptane-2-carboxamide] is 8 µg.
For the molecule `CCC1(C(=O)Nc2ccc(OC)cc2)CCCCCC1C` (stereo not drawn) [N-(4′-methoxyphenyl)-1-ethyl-2-methylcycloheptanecarboxamide], the “Cold Sensation Threshold on Tongue” value is 6 µg.
The same measure, in the same setting: the figure for `COc1ccc(NC(=O)C(C)(C(C)C)C(C)C)cc1` [N-(4′-methoxyphenyl)-2-isopropyl-2,3-dimethylbutyramide] is 0.5 µg; for `COc1ccc(NC(=O)C(C)(CC(C)C)C(C)C)cc1` (stereo not drawn) [N-(4′-methoxyphenyl)-2-isopropyl-2,4-dimethylpentanamide] it is 2 µg; for `COc1ccc(NC(=O)C2CC(C)CCC2C(C)C)cc1` (stereo not drawn) [N-(4′-methoxyphenyl)-2-isopropyl-5-methylcyclohexanecarboxamide] it is 0.1 µg.
`COc1ccc(NC(=O)C2C3CCC(C3)C2(C)C)cc1` (stereo not drawn) [N-(4′-methoxyphenyl)-3,3-dimethylbicyclo[2.2.1]heptane-2-carboxamide]: the “Cold Sensation Threshold on Tongue” value was found to be 20 µg.
The same measure, in the same setting: as for `COc1ccc(NC(=O)C2C3C=CC(C3)C2CC(C)C)cc1` (stereo not drawn) [N-(4′-methoxyphenyl)-3-isobutylbicyclo[2.2.1]hept-5-ene-2-carboxamide], the figure is 4 µg; as for `COc1ccc(NC(=O)C2C3CCC(C3)C2C(C)C)cc1` (stereo not drawn) [N-(4′-methoxyphenyl)-3-isopropylbicyclo[2.2.1]heptane-2-carboxamide], 15 µg; as for `CC1CCC(C(C)C)C(C(=O)Nc2ccc([N+](=O)[O-])cc2)C1` (stereo not drawn) [N-(4′-nitrophenyl)-2-isopropyl-5-methylcyclohexanecarboxamide], 0.3 µg.
On the same count and under the same terms, the figure for `CC1CCC(C(C)C)C(C(=O)Nc2ccccc2)C1` (stereo not drawn) [N-phenyl-2-isopropyl-5-methylcyclohexanecarboxamide] is 20 µg; for `CC1CCC(C(C)C)C(C(=O)NCc2ccccc2)C1` (stereo not drawn) [N-phenylmethyl-2-isopropyl-5-methylcyclohexanecarboxamide] it is 20 µg.

For the origin of these results see patent publication US7417048B2, “Aryl-substituted derivatives of cycloalkyl and branched chain alkyl carboxylic acids useful as antinociceptive drugs for peripheral targets” (priority 2003, dated 2008).
